pIC50: −log10 of the molar value.

The target in the assay is T1, human CRHR2-alpha (Homo sapiens, UniProt Q13324).
T1 construct: host or cells: CHO-K1
T1 sequence (Q13324 1-411): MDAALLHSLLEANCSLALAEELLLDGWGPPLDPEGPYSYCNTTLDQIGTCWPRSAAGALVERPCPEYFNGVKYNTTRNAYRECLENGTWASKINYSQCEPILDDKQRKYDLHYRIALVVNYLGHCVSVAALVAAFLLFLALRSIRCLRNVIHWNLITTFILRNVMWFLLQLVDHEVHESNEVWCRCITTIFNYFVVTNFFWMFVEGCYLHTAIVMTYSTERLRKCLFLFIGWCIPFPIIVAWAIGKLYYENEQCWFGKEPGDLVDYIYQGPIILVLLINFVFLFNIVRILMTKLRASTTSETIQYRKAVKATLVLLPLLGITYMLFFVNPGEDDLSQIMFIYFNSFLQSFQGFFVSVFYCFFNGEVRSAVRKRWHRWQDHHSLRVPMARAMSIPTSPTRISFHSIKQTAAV
In words: cAMP functional assay for human CRHR2 (LANCE Ultra TR-FRET). Type of assay: cell-based. Conditions: inhibition of cAMP production in CHO-K1 cells stably expressing human CRHR2-alpha, EC90 of human urocortin2 as agonist; read-out: IC50 against CRHR2. On the procedure: cAMP functional assay for human CRHR2 The ability of the compounds of this invention to inhibit either CRHR2 is assessed by 3′,5′-cyclic adenosine monophosphate (cAMP) production in cells using the LANCE Ultra cAMP assay kit (ParkinElmer), which are designed based on the homogeneous time-resolved fluorescence resonance energy transfer (TR-FRET) immunoassay.
CHO-K1 (Chinese hamster ovary) cells stably expressing human CRHR2-alpha (DiscoveRX, Cat. 95-0048C2) are grown in HAM's F12 media supplemented with 10% fetal bovine serum (FBS), 100 units/mL penicillin G, 100 microg/mL hygromycin and 0.5 microg/mL geneticin at 37° C. in 5% CO2 humidified incubator to 80% confluence. After 7 hours starvation treatment in culture media containing 0.1% FBS, the cells are washed with Hanks balanced salt solution (HBSS) and cryopreserved.
For cAMP assay, frozen cells are thawed and washed with HBSS, followed by resuspending cells in assay buffer (HBSS containing 0.1% bovine serum albumin, 0.5 mM isobutylmethylxanthine and 5 mM Hepes, pH 7.4) at the appropriate concentration for the assay. The cell suspensions are plated on 384-well microplates (Greiner Bio-One) at a density of 4,000 cells per well. After preincubating the cells with various concentrations of the compounds for 30 min at 25° C., an assay buffer containing EC90 concentration of agonist is added and the cells are incubated for 30 min at 25° C. Human urocortin2 (Peptide Institute) is used as agonists for CRHR2. For the termination of assay, europium-labeled cAMP tracer and ULight (registered trademark) dye labeled cAMP antibodies, both prepared with Lance-Ultra cAMP detection reagent (PerkinElmer) are added in the plate and incubate for 60 min at 25° C. After incubation, TR-FRET signal is detected by EnVision plate reader (PerkinElmer). The IC50 values for compounds are calculated from dose-response curves by fitting the percent inhibition using XLfit (ID Business Solutions).
Take `COc1ccc(C2(O)C(=O)N(C[C@H]3CC[C@H](NC(=O)c4cc(Cl)cnc4C(F)F)CC3)c3ccccc32)s1` (some centres unmarked) [Example 99, 5-chloro-2-(difluoromethyl)-N-((1r,4r)-4-((3-hydroxy-3-(5-methoxythiophen-2-yl)-2-oxoindolin-1-yl)methyl)cyclohexyl) nicotinamide]: the pIC50 was above 6.70. The result for `O=C(N[C@H]1CC[C@H](CN2C(=O)C(O)(c3ccccc3F)c3cc(F)ccc32)CC1)c1cc(Cl)cnc1C(F)F` (some centres unmarked) [Example 93, 5-chloro-2-(difluoromethyl)-N-((1r,4r)-4-((5-fluoro-3-(2-fluorophenyl)-3-hydroxy-2-oxoindolin-1-yl)methyl)cyclohexyl) nicotinamide] reads above 6.70. With `O=C(N[C@H]1CC[C@H](CN2C(=O)C(O)(c3ccc(F)cn3)c3ccc(F)cc32)CC1)c1cc(Cl)cnc1C(F)F` (some centres unmarked) [Example 79, 5-chloro-2-(difluoromethyl)-N-((1r,4r)-4-((6-fluoro-3-(5-fluoropyridin-2-yl)-3-hydroxy-2-oxoindolin-1-yl)methyl)cyclohexyl) nicotinamide], the pIC50 was above 6.70. Take `O=C(N[C@H]1CC[C@H](CN2C(=O)C(O)(c3ccccc3)c3ccccc32)CC1)c1cc(Cl)cnc1C(F)F` (some centres unmarked) [Example 3, 5-chloro-2-(difluoromethyl)-N-((1r,4r)-4-((3-hydroxy-2-oxo-3-phenylindolin-1-yl)methyl)cyclohexyl) nicotinamide]: the pIC50 was above 6.70. Regarding `O=C(N[C@H]1CC[C@H](CN2C(=O)C(O)(c3cccc(F)c3F)c3ccccc32)CC1)c1cc(Cl)cnc1C(F)F` (some centres unmarked) [Example 40, 5-chloro-2-(difluoromethyl)-N-((1r,4r)-4-((3-(2,3-difluorophenyl)-3-hydroxy-2-oxoindolin-1-yl)methyl)cyclohexyl) nicotinamide], the negative logarithm of the IC50 (pIC50) is above 6.70. On to `Cc1cccc(C2(O)C(=O)N(C[C@H]3CC[C@H](NC(=O)c4cc(Cl)cnc4C(F)F)CC3)c3ccccc32)c1F` (some centres unmarked) [Example 63, 5-chloro-2-(difluoromethyl)-N-((1r,4r)-4-((3-(2-fluoro-3-methylphenyl)-3-hydroxy-2-oxoindolin-1-yl)methyl)cyclohexyl) nicotinamide], for which the pIC50 is above 6.70. Consider `COc1cccc2c1C(O)(c1cccc(F)c1F)C(=O)N2C[C@H]1CC[C@H](NC(=O)c2cc(Cl)cnc2C(F)F)CC1` (some centres unmarked) [Example 158, 5-chloro-2-(difluoromethyl)-N-((1r,4r)-4-((3-(2,3-difluorophenyl)-3-hydroxy-4-methoxy-2-oxoindolin-1-yl)methyl)cyclohexyl) nicotinamide], for which the pIC50 was above 6.70. For `O=C(N[C@H]1CC[C@H](CN2C(=O)C(O)(c3ccccc3F)c3cccnc32)CC1)c1cc(Cl)cnc1C(F)F` (some centres unmarked) [Example 94, 5-chloro-2-(difluoromethyl)-N-((1r,4r)-4-((3-(2-fluorophenyl)-3-hydroxy-2-oxo-2,3-dihydro-1H-pyrrolo[2,3-b]pyridin-1-yl)methyl)cyclohexyl) nicotinamide], the pIC50 was above 6.70. On to `O=C(N[C@H]1CC[C@H](CN2C(=O)C(O)(c3ccccc3F)c3ccc(F)cc32)CC1)c1cc(Cl)cnc1C(F)F` (some centres unmarked) [Example 83, 5-chloro-2-(difluoromethyl)-N-((1r,4r)-4-((6-fluoro-3-(2-fluorophenyl)-3-hydroxy-2-oxoindolin-1-yl)methyl)cyclohexyl) nicotinamide], for which the pIC50 is above 6.70.

With `O=C(N[C@H]1CC[C@H](CN2C(=O)C(O)(c3cccc(F)c3F)c3ccccc32)CC1)c1cc(Cl)cnc1C(F)(F)F` (some centres unmarked) [Example 113, 5-chloro-N-((1r,4r)-4-((3-(2,3-difluorophenyl)-3-hydroxy-2-oxoindolin-1-yl)methyl)cyclohexyl)-2-(trifluoromethyl)nicotinamide], the negative logarithm of the IC50 (pIC50) was above 6.70. As for `COc1cc(C2(O)C(=O)N(C[C@H]3CC[C@H](NC(=O)c4cc(Cl)cnc4C(F)F)CC3)c3ccccc32)c(F)cn1` (some centres unmarked) [Example 27, 5-chloro-2-(difluoromethyl)-N-((1r,4r)-4-((3-(5-fluoro-2-methoxypyridin-4-yl)-3-hydroxy-2-oxoindolin-1-yl)methyl)cyclohexyl) nicotinamide], the pIC50 is above 6.70. In the case of `O=C(N[C@H]1CC[C@H](CN2C(=O)C(O)(c3cccc(F)c3F)c3cc(F)ccc32)CC1)c1cc(Cl)cnc1C(F)F` (some centres unmarked) [Example 123, 5-chloro-2-(difluoromethyl)-N-((1r,4r)-4-((3-(2,3-difluorophenyl)-5-fluoro-3-hydroxy-2-oxoindolin-1-yl)methyl)cyclohexyl) nicotinamide], the pIC50 is above 6.70. For the molecule `COc1cc(C2(O)C(=O)N(C[C@H]3CC[C@H](NC(=O)c4cc(Cl)cnc4C(F)F)CC3)c3cc(F)ccc32)c(F)cn1` (some centres unmarked) [Example 115, 5-chloro-2-(difluoromethyl)-N-((1r,4r)-4-((6-fluoro-3-(5-fluoro-2-methoxypyridin-4-yl)-3-hydroxy-2-oxoindolin-1-yl)methyl)cyclohexyl) nicotinamide], the pIC50 is above 6.70. Regarding `O=C(N[C@H]1CC[C@H](CN2C(=O)C(O)(c3cccc(Cl)c3)c3ccccc32)CC1)c1cc(Cl)cnc1C(F)F` (some centres unmarked) [Example 48, 5-chloro-N-((1r,4r)-4-((3-(3-chlorophenyl)-3-hydroxy-2-oxoindolin-1-yl)methyl)cyclohexyl)-2-(difluoromethyl)nicotinamide], the pIC50 is above 6.70. Take `Cc1ncc(Cl)cc1C(=O)N[C@H]1CC[C@H](CN2C(=O)C(O)(c3cccc(F)c3F)c3cc(F)ccc32)CC1` (some centres unmarked) [Example 162, 5-chloro-N-((1r,4r)-4-((3-(2,3-difluorophenyl)-5-fluoro-3-hydroxy-2-oxoindolin-1-yl)methyl)cyclohexyl)-2-methylnicotinamide]: the pIC50 is above 6.70. In the case of `O=C(N[C@H]1CC[C@H](CN2C(=O)C(O)(c3ccc(Cl)cn3)c3cc(F)ccc32)CC1)c1cc(Cl)cnc1C(F)F` (some centres unmarked) [Example 125, 5-chloro-N-((1r,4r)-4-((3-(5-chloropyridin-2-yl)-5-fluoro-3-hydroxy-2-oxoindolin-1-yl)methyl)cyclohexyl)-2-(difluoromethyl)nicotinamide], the pIC50 is above 6.70. As to `COc1ccc(F)c(C2(O)C(=O)N(C[C@H]3CC[C@H](NC(=O)c4cc(Cl)cnc4C)CC3)c3ccccc32)c1` (some centres unmarked) [Example 128, 5-chloro-N-((1r,4r)-4-((3-(2-fluoro-5-methoxyphenyl)-3-hydroxy-2-oxoindolin-1-yl)methyl)cyclohexyl)-2-methylnicotinamide], the pIC50 was above 6.70. Regarding `Cc1cccc2c1C(O)(c1ccccc1F)C(=O)N2C[C@H]1CC[C@H](NC(=O)c2cc(Cl)cnc2C(F)F)CC1` (some centres unmarked) [Example 179, 5-chloro-2-(difluoromethyl)-N-((1r,4r)-4-((3-(2-fluorophenyl)-3-hydroxy-4-methyl-2-oxoindolin-1-yl)methyl)cyclohexyl) nicotinamide], the pIC50 is above 6.70. Take `Cc1ccc(C2(O)C(=O)N(C[C@H]3CC[C@H](NC(=O)c4cc(Cl)cnc4C(F)F)CC3)c3ccccc32)cc1` (some centres unmarked) [Example 56, 5-chloro-2-(difluoromethyl)-N-((1r,4r)-4-((3-hydroxy-2-oxo-3-(p-tolyl)indolin-1-yl)methyl)cyclohexyl) nicotinamide]: the pIC50 was above 6.70.

In the case of `Cc1cccc(C2(O)C(=O)N(C[C@H]3CC[C@H](NC(=O)c4cc(Cl)cnc4C(F)F)CC3)c3ccccc32)c1` (some centres unmarked) [Example 49, 5-chloro-2-(difluoromethyl)-N-((1r,4r)-4-((3-hydroxy-2-oxo-3-(m-tolyl)indolin-1-yl)methyl)cyclohexyl) nicotinamide], the pIC50 was above 6.70.

The values are drawn from US12421191B2, “3-hydroxyoxindole derivatives as CRHR2 antagonist” (RaQualia Pharma Inc., priority 2020, dated 2025).
